Results reported in US20170304228A1, “NEW INDICATION OF CINACALCET HCL PHARMACEUTICAL COMPOSITION FOR TREATING CANCER” (LAUNX BIOMEDICAL CO., LTD., priority 2014, published 2017).
Counter-ions that a name gives are not always drawn. Like-named read-outs stand apart in the source and are kept apart here.

Columns and labels:
Type in all cases: cell-based
MKN-45 = experiment: Cell viability analysis (WST-1), MKN-45; details: Homo sapiens, read-out: survival rate (viability) of cells
Procedure: (§1) The cell numbers were counted and reseed as 2×10^6 in culture plate/flask. Then, the culture medium were added to a volume of 10 ml, and the cells were cultured for 2-3 days. Then, the cells were suspended for loading into 96-well plates. The number of cells was 3000 and the volume of the culture medium was 100 μl each well.
(§2) Removing the original culture medium from 96-well plate. Then add 100 μl of commercially drug at a concentration of 10 μM per well. After 72 hours, add the diluted WST-1 reagent to the well with 100 μl/well, and the diluted WST-1 reagent was acquired from the dilution of 9:1 medium and WST-1 stock reagent. Finally, the total volume of each well was 200 μl/well. Culture the 96-well plate at 37° C. for 30 to 90 minutes. Detecting and calculate the survival rate of each cancer cells with an ELISA reader at OD450 nm. The lower viability of cancer cells represents better inhibition effect via the Cinacalcet HCl drug. Otherwise, the higher viability of cancer cells represents worse inhibition effect via the Cinacalcet HCl drug.
(§3) This inhibition test of Cinacalcet HCl on gastrointestinal tract-related cancer cells were using gastric cancer cell lines AGS and MKN-45 (Table 9), hepatic cancer cell lines HepG2 and Hep3B (Table 10), colorectal cancer cell lines HCT116-wt and LoVo (Table 11), pancreatic cancer cell line AsPC-1 and BxPC-3(Table 12), tongue cancer cell line SAS (Table 13). The inhibitory tests of Cinacalcet HCl were performed 4 times for each cell lines and then the average value of the inhibitory tests was calculated.

T24 = experiment: Cell viability analysis (WST-1), T24; details: Homo sapiens, read-out: survival rate (viability) of cells
Procedure: as §1, §2
(§4) This inhibition test of Cinacalcet HCl on abdominal-related cancer cells were using bladder cancer cell line TSGH and T24 (Table 3), cervical cancer cell lines HeLa and C-33A (Table 4), renal cancer cell line 786-O (Table 5). The inhibitory tests of Cinacalcet HCl were performed 4 times for each cell lines and then the average value of the inhibitory tests was calculated.

TOV-21G = experiment: Cell viability analysis (WST-1), TOV-21G; details: Homo sapiens, TOV21G, read-out: survival rate (viability) of cells
Procedure: as §1, §2
This inhibition test of Cinacalcet HCl on endocrine-related cancer cells were using prostate cancer cell lines PC-3 and LNCap (Table 6), breast cancer cell lines MCF7 and MDA-MB-231 (Table 7), and ovarian cancer cell lines NIH-OVCAR-3 and TOV-21G (Table 8). The inhibitory tests of Cinacalcet HCl were performed 4 times for each cell lines and then the average value of the inhibitory tests was calculated.

prostate cancer cells = experiment: Summary of cell viability, prostate cancer cells; details: 72 hours, read-out: Inhibitory effect
Procedure: as §1, §2
(§5) Cinacalcet HCl is having different inhibitory effect on different tumor cell type even in the same cancer. […] (FIG. 1)

AsPC-1 = experiment: Cell viability analysis (WST-1), AsPC-1; details: Homo sapiens, read-out: survival rate (viability) of cells
Procedure: as §1, §2, §3

colorectal cancer cells = experiment: Summary of cell viability, colorectal cancer cells; details: 72 hours, read-out: Inhibitory effect
Procedure: as §1, §2, §5

gastric cancer cells = experiment: Summary of cell viability, gastric cancer cells; details: 72 hours, read-out: Inhibitory effect
Procedure: as §1, §2, §5

AGS = experiment: Cell viability analysis (WST-1), AGS; details: Homo sapiens, read-out: survival rate (viability) of cells
Procedure: as §1, §2, §3

C-33A = experiment: Cell viability analysis (WST-1), C-33A; details: Homo sapiens, read-out: survival rate (viability) of cells
Procedure: as §1, §2, §4

HCT116-wt = experiment: Cell viability analysis (WST-1), HCT116-wt; details: read-out: survival rate (viability) of cells
Procedure: as §1, §2, §3

HeLa = experiment: Cell viability analysis (WST-1), HeLa; details: Homo sapiens, read-out: survival rate (viability) of cells
Procedure: as §1, §2, §4

hepatic cancer cells = experiment: Summary of cell viability, hepatic cancer cells; details: 72 hours, read-out: Inhibitory effect
Procedure: as §1, §2, §5

C[C@@H](NCCCc1cccc(C(F)(F)F)c1)c1cccc2ccccc12 [Cinacalcet HCl, Cinacalcet hydrochloride]
viability at 10 µM (MKN-45; MKN-45, 10 μM, 72 hours, test 0510-10 min): 82.1% | viability at 10 µM (MKN-45; MKN-45, 10 μM, 72 hours, test 0512-10 min): 102% | viability at 10 µM (MKN-45; MKN-45, 10 μM, 72 hours, test 0515-10 min): 104% | viability at 10 µM (MKN-45; MKN-45, 10 μM, 72 hours, test 0517-10 min): 69.1% | viability at 10 µM (MKN-45; MKN-45, 72 h, 10 μM, average of tests): 89.1% | viability at 10 µM (T24; T-24, 10 μM, 72 hours, test T24-1-30 min): 71.1% | viability at 10 µM (T24; T-24, 10 μM, 72 hours, test T24-2-20 min): 133% | viability at 10 µM (T24; T-24, 10 μM, 72 hours, test T24-3-20 min): 177% | viability at 10 µM (T24; T-24, 10 μM, 72 hours, test T24-4-20 min): 103% | viability at 10 µM (T24; T-24, 72 h, 10 μM, average of tests): 121% | viability at 10 µM (TOV-21G; 72 h, average of tests): 113% | viability at 10 µM (TOV-21G; 72 hours, test 7-3-30 min): 129% | viability at 10 µM (TOV-21G; 72 hours, test 7-4-30 min): 109% | viability at 10 µM (TOV-21G; 72 hours, test 7-7-30 min): 104% | viability at 10 µM (TOV-21G; 72 hours, test -4-30 min): 108% | viability at 10 µM (prostate cancer cells): 81.7% | viability at 10 µM (AsPC-1; ASPC1, 10 μM, 72 hours, test 1-4-30 min): 71.9% | viability at 10 µM (AsPC-1; ASPC1, 10 μM, 72 hours, test 1-7-3-30 min): 61.6% | viability at 10 µM (AsPC-1; ASPC1, 10 μM, 72 hours, test 1-7-4-30 min): 81.7% | viability at 10 µM (AsPC-1; ASPC1, 10 μM, 72 hours, test 1-7-7-30 min): 60.4% | viability at 10 µM (AsPC-1; ASPC1, 72 h, 10 μM, Average of tests): 68.9% | viability at 10 µM (colorectal cancer cells): 74.4% | viability at 10 µM (gastric cancer cells): 123% | viability at 10 µM (AGS; 72 h, average of tests): 28.3% | viability at 10 µM (AGS; 72 hours, test 0510-10 min): 26.6% | viability at 10 µM (AGS; 72 hours, test 0512-10 min): 20% | viability at 10 µM (AGS; 72 hours, test 0515-10 min): 52.3% | viability at 10 µM (AGS; 72 hours, test 0517-10 min): 14.5% | viability at 10 µM (C-33A; 72 h, average of tests): 110% | viability at 10 µM (C-33A; 72 hours, test 0524-10 min): 114% | viability at 10 µM (C-33A; 72 hours, test 0526-10 min): 119% | viability at 10 µM (C-33A; 72 hours, test 0529-10 min): 108% | viability at 10 µM (C-33A; 72 hours, test 0531-10 min): 100% | viability at 10 µM (HCT116-wt; 72 h, average of tests): 110% | viability at 10 µM (HCT116-wt; 72 hours, test 0602-30 min): 89% | viability at 10 µM (HCT116-wt; 72 hours, test 0605-10 min): 107% | viability at 10 µM (HCT116-wt; 72 hours, test 0607-10 min): 132% | viability at 10 µM (HCT116-wt; 72 hours, test 0609-10 min): 113% | viability at 10 µM (HeLa; 72 h, average of tests): 111% | viability at 10 µM (HeLa; 72 hours, test 0524-10 min): 110% | viability at 10 µM (HeLa; 72 hours, test 0526-10 min): 119% | viability at 10 µM (HeLa; 72 hours, test 0529-10 min): 104% | viability at 10 µM (HeLa; 72 hours, test 0531-10 min): 113% | viability at 10 µM (hepatic cancer cells): 102%
